A melting point compilation (Tetko et al.; mined from patent text by program, amines drawn as free bases though some values may be those of a salt)

melting point	SMILES
120 to 121 °C	CNc1ccc(C(=O)N2CCN(CCc3ccc(SC)cc3)CC2)cc1
104 to 106 °C	Cc1cc(OC2CCN(C(=O)OC(C)(C)C)CC2)ccc1[N+](=O)[O-]
116 to 117 °C	N#Cc1ccccc1Sc1nsc2ccccc12
160 to 165 °C	CCCNC(=O)NS(=O)(=O)c1ccccc1-c1ccc(Cn2c(CCC)nc(C)c2C(=S)OCC)cc1
220 to 222 °C	CC(C)(C)C(=O)C(C(O)C(Cl)(Cl)Cl)n1cncn1 (stereo not given)
115 to 116 °C	CCc1nc(OC)c(NC(=O)N2CCN(c3cc(OC)cc(OC)c3)CC2)cc1C
64 to 80 °C	CON1C(=O)CC2(CCN(C(=O)CCN3C=CCC(C(N)=O)=C3)CC2)C1=O
136 to 138 °C	COc1ccccc1Oc1c(N)nc(N2CCOCC2)nc1OCCO
179 to 181 °C	CC(Cl)(Cl)C(NC(=O)c1cccc(Cl)c1)NC(=NC#N)Nc1cccc(F)c1 (stereo not given)
106 to 107 °C	CCCOc1cc(CCC(=O)O)ccc1OCCCc1cn(-c2ccc(C(F)(F)F)cn2)nc1OCC
94 to 95 °C	CC1(c2nc(NC3CC3)nc(N3CCOCC3)n2)CC1
124 °C	CC(=O)OC1C(C)OC(Sc2ccccc2)C(OCc2ccccc2)C1OC(C)=O (stereo not given)
> 300 °C	Cc1cc(C)cc(CON2C(=O)COc3ccc(C=C4SC(=S)NC4=O)cc32)c1
163 to 168 °C	CC(=O)Nc1ccc2c(c1)CC2OC#N (stereo not given)
102 to 103 °C	COc1cccnc1CSCCN=C(NC#N)SC
235 to 238 °C	Cc1cc(C)cc(CC(C)(C)NCC(O)c2cc(O)cc3c2OCC(=O)N3)c1 (stereo not given)
210 to 212 °C	COc1cc(-c2cnc3[nH]cc(C(=O)N4CCCC4)c3n2)cc(OC)c1OC
203 °C	CC(=O)OC1CSC(Oc2cc(C)c(Cl)cc2-c2ccno2)C(OC(C)=O)C1OC(C)=O (stereo not given)
> 300 °C	O=C1Nc2cc(NC(=O)c3c[nH]cc(-c4ccc(F)cc4)c3=O)c(F)cc2/C1=C/c1ccc[nH]1
33 to 34 °C	COCCOCCOC(=O)C#CC(=O)c1cc(OC)c(OC)c(OC)c1
208 to 209 °C	c1cncc(OCCCn2cc(-c3cc4nccnc4[nH]3)c3ccccc32)c1
170 to 175 °C	CCOC(=O)C(CBr)=C1C(=N)CCCC1=O
198 to 200 °C	COc1ccc(C(=O)Nc2ccc(C(C)(C)C#N)c(-c3cncnc3)c2)cc1OC
35 to 37 °C	CCCN(CCC)C(=O)CCC(=O)O

melting point	SMILES
270 °C	CCOC(=O)COC(=O)c1c(I)c(NC(C)=O)c(I)c(NC(C)=O)c1I
33 to 35 °C	CC(=O)C(C)(C(C)=O)C(C)=O
144 to 146 °C	COC(=O)c1nc(-c2ccc(Cl)c(OC)c2F)nc(N)c1C(F)CBr (stereo not given)
167 to 170 °C	CC1Nc2ccccc2N2CCc3cc(Cl)cc1c32 (stereo not given)
150 °C	CCN(C(=O)C(F)(F)F)c1ccc(C(=O)Nc2ccc3ccc(OC)nc3n2)cc1
254 to 255 °C	Cn1nc(-c2cnc(N)nc2-c2ccccc2)ccc1=O
239 to 240 °C	CC(C)n1nc(-c2sc(Nc3cccc4ccccc34)nc2-c2ccccc2)ccc1=O
210 to 212 °C	COC(=O)C=Cc1ccc(-n2ccn(-c3ccc(C#N)cc3)c2=O)cc1
155 °C	Oc1cccc(C2=CCCN(CCc3ccccc3)C2)c1
194 to 195 °C	Cc1cc(CCCOc2c(C)cc(-c3noc(=O)[nH]3)cc2C)on1
125 to 128 °C	COc1ccc(C(=NOC(C)=O)c2ccccc2F)c(O)c1Cl
170 to 172 °C	O=C(O)COc1ccc2c(c1)CC(NS(=O)(=O)c1ccc(Cl)cc1)C2 (stereo not given)
91 to 93 °C	CC(C)(C)OC(=O)N1CCC(C(=O)c2ccccc2)CC1
243 to 244 °C	CC(C)(C)OC(=O)N1CCN(S(=O)(=O)c2ccc(N)c(Cl)c2)CC1
212 °C	C/C=C(/c1ccc(C(=O)O)cc1)c1ccc2c(c1)C(C)(C)CCC2(C)C
94 to 97 °C	COC(=O)CCCc1cc2cc(Cl)ccc2n1S(=O)(=O)c1cccc(C(C)C)c1
173 to 175 °C	COc1ccc(CCN2CC(COc3cccc4c(=O)[nH]ccc34)OC2=O)cc1OC (stereo not given)
198 to 199 °C	Cc1sc(-c2ccc(Cl)cc2)nc1O
73.5 °C	CN(C)CC(=O)N1CCN2C(=O)N(c3cc(Cl)cc(Cl)c3)C(=O)C2(Cc2ccc(Br)cc2)C1 (stereo not given)
117 to 122 °C	CC(C)c1cccc(C(C)C)c1NC(=O)C(N)Cc1ccc(OCc2ccccc2)cc1 (stereo not given)
71 to 72 °C	FC(F)(F)c1cnc(-c2ccc(Cl)c(CBr)c2)c(Cl)c1
191 to 195 °C	CC(C)n1cc(C(=O)NCc2ccc(Cl)cc2)c(=O)c2cc(CN3CCOCC3)sc21
197 to 200 °C	CN(C)C=Nc1[nH]nc(NCc2ccccc2)c1C#N
57.6 °C	CC#CCOc1cc(N(C)c2ccccc2)ncn1

melting point	SMILES
216 to 218 °C	Cc1nc2c(O)c(CCC(O)c3ccccc3)c(C(=O)N(C)C)cc2n1C (stereo not given)
158 to 160 °C	CC(C)(C)c1cc(Cl)c2c(c1)CNS(=O)(=O)O2
183 to 184 °C	O=C(CN1CCC(Cc2ccccc2)CC1)Nc1ccc2[nH]c(=S)oc2c1
168 to 169 °C	O=C(Cc1cn(-c2ccccc2)nc1-c1ccc(Cl)cc1)NO
157 to 158 °C	Cc1cc(OC(C)c2ccccc2)ccc1C(C)N(O)C(N)=O (stereo not given)
120 to 121 °C	COc1cc(C=C(C)[N+](=O)[O-])cc2c1OC(C)(C)C2
113 to 114 °C	N#Cc1ccc2c(CCC3CCN(Cc4ccccc4)CC3)noc2c1
> 240 °C	CC(C)(C)C(=O)Nc1cc2c(O)n(I)cnc-2n1
215 to 216 °C	CC(=O)Nc1ccc(Oc2c(-c3ccc(S(C)(=O)=O)cc3)cnn(CC(F)(F)F)c2=O)cc1
160 to 162 °C	CCOC(=O)N1CCn2c(nc(-c3ccncn3)cc2=O)C(CC)C1 (racemic)
168 to 170 °C	CC(=O)Nc1c(OC(C)=O)cc2c(c1[N+](=O)[O-])CCC2
110 °C	CCOC(=O)C1=C(C)N(C2CC2)C(C)=C(C(=O)OC)C1c1ccc(C(F)(F)F)cc1 (stereo not given)
89.5 to 90.5 °C	COC(=O)c1ccc(OCC2CC(=O)N(c3ccc(OCC(C)(C)O)cc3)C2)cc1 (stereo not given)
255 to 256 °C	CCOC(=O)c1cc2c(=O)c3cc(C(C)CO)ccc3oc2nc1N (stereo not given)
47 to 47.5 °C	COC(=O)CNc1cccc(CF)c1
176 to 177 °C	Cc1c(NC(=O)c2ccc(-c3ccc4c(c3)CCO4)cc2)ccc2cc(CN3CCCC3)cnc12
43 to 45 °C	CCCCCCCCCCCCCCc1ccc(CCCCCC)c(O)c1
182 °C	Cn1nnc2c(N3CCOCC3)nc(-c3ccc(NC(=O)Nc4cccs4)cc3)nc21
138 to 139 °C	CN(C=C(C#N)C(=O)Nc1ccccc1Cl)Cc1ccccc1Cl
120 to 128 °C	CC(=O)OC(C(=O)N1C(Cc2ccccc2)COC1(C)C)c1ccc(-c2ccc(-c3ccccc3)cc2)o1 (stereo not given)
178 to 180 °C	CC(C)(C)OC(=O)N1CCn2c(Cl)c(-c3ccccc3)c(C(N)=O)c2C1
167 to 168 °C	CC(NC(=O)Nc1cc(Cl)ccc1CCc1cc(C(C)(C)C)c(O)c(C(C)(C)C)c1)c1ccccc1 (stereo not given)
42 to 45 °C	CCCCc1ccc(C(=O)C(CC(=O)N[C@@H](Cc2cc(F)cc(F)c2)[C@H](O)CNCc2cccc(CC)c2)Cc2ccccc2)cc1 (stereo not given in full)
100 to 101 °C	CC(=O)c1ccc(-c2ccc(Cl)cc2)cc1

melting point	SMILES
43 to 45 °C	CNS(=O)(=O)Oc1ccccc1
147 to 149 °C	COc1cc2onc(C3CCN(CCCn4c(=O)[nH]c5ccccc54)CC3)c2cc1OC
149 to 150 °C	C[C@@H](c1ccccc1)N1C[C@@H](C(N)=O)CC1=O
185 to 188 °C	CCCCc1ncc(C=C2C(=O)N(C)c3ccccc32)n1Cc1ccc(C(=O)O)cc1
78 to 81 °C	COc1cc(NS(=O)(=O)c2cccc(C(F)(F)F)c2)cc(OC)c1
194 to 197 °C	Cc1c(CC(=O)NS(=O)(=O)c2ccccc2)c2cc(OCc3ccc4ccccc4n3)ccc2n1Cc1ccc(Cl)cc1
74 to 77 °C	CCOC1CCC2C3CCc4cc(OC)ccc4C3CCC12CC (stereo not given)
160 to 161 °C	NC(=O)c1cccc(OCc2ccc(Br)cc2)c1
150 to 151 °C	CC1CCC(C(C)C)C(c2ccc3c(c2)C(c2ccccc2)(C(F)(F)F)c2cc(C4CC(C)CCC4C(C)C)ccc2O3)C1 (stereo not given)
109 to 113 °C	CCC1CCCC(C)C1=NC(C)COC (stereo not given)
76 to 81.5 °C	CC(=O)c1cccc(F)c1C(=O)O
229 to 231 °C	COc1ccc(NC(=O)c2ccc(F)c(F)c2)cc1NS(=O)(=O)c1ccc(N)cc1
108 °C	CNC(=O)N(O)Cc1cccs1
84 °C	CNc1cc(OC)cc(NCCOC)c1[N+](=O)[O-]
221 to 223 °C	Nc1cc2cccnc2c(-c2cccc([N+](=O)[O-])c2)n1
83 to 84 °C	O=C(O)Cc1ccc[nH]1
206 to 208 °C	CCC(=O)Nc1c(C(=O)c2cccc(Cl)c2)[nH]c2ccc(Cl)cc12
159 to 161 °C	CCOC(=O)C1=C(C(F)(F)F)Nc2n[nH]cc2C1c1ccc(OC)cc1 (stereo not given)
140 to 142 °C	COc1ccc(OC)c(CC2=C(C)C(=O)C3C=CC=CC3C2=O)c1 (stereo not given)
193 to 194 °C	Nc1nc(-c2ccc(NC(=O)CN(Cc3ccccc3)S(=O)(=O)N3CCOCC3)cc2)cs1
152 to 154 °C	CC(C)(C)OC(=O)N1CCNC(=O)C1Cc1ccccc1 (stereo not given)
134 to 135 °C	CC(C)(CC(=O)O)C(=O)C(=O)O
204 to 208 °C	O=C(O)COC1Cc2sc(S(=O)(=O)C(c3ccccc3F)c3ccccc3F)nc2-c2ccccc21 (stereo not given)
90 °C	Cc1nn(CCOc2ccc(C=O)cc2)c(=O)c2ccccc12

SMILES	melting point
N#Cc1nn(-c2c(Cl)cc(C(F)(F)F)cc2Cl)c(-n2ccnc2)c1S(=O)(=O)C(F)(F)F	214 to 215 °C
NNC1=Nc2sc(Cl)cc2C(c2ccccc2)=NC1	204 to 207 °C
Cc1nnc(-c2ccc3ncn(C4CCN(Cc5ccccc5)CC4)c3c2)o1	173 to 174 °C
Fc1cc(Br)cc(CBr)c1	41 to 43 °C
